In BindingDB's records for patent US20240294509 (Euregen Biopharma Co., 2024):

How the values were obtained:
[1] = target: Poly [ADP-ribose] polymerase 1 (Homo sapiens, UniProt P09874); assay: Inhibition of Compounds on PARP1/7 Enzyme Activity
Text: (§1) Fit the dose-response data with standard dilutions using Prism GraphPad software and calculate the concentration required to achieve 5000 inhibition of PARP1 or PARP7 enzyme activity (IC50).

[2] = target: T1, Protein mono-ADP-ribosyltransferase TIPARP (Homo sapiens, UniProt Q7Z3E1); assay: Inhibition of Compounds on PARP1/7 Enzyme Activity
T1 sequence (Q7Z3E1 whole entry): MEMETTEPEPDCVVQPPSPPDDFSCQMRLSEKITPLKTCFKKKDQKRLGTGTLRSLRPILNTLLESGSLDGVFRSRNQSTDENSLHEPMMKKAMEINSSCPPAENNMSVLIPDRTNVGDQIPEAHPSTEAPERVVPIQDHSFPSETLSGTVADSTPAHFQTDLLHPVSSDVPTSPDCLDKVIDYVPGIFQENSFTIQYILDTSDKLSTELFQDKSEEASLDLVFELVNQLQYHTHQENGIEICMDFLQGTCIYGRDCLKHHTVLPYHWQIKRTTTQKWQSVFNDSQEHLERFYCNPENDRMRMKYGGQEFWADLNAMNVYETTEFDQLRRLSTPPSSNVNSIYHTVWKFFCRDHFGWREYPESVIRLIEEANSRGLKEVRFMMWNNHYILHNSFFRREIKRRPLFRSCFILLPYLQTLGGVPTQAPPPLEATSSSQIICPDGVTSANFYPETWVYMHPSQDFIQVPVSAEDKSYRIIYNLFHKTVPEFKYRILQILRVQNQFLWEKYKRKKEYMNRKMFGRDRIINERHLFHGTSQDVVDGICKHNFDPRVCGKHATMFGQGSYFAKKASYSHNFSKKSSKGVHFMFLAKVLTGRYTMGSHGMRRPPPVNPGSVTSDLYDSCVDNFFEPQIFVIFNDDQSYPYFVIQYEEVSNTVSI
Text: as §1

Chain of Poly [ADP-ribose] polymerase 1 (P09874 whole entry): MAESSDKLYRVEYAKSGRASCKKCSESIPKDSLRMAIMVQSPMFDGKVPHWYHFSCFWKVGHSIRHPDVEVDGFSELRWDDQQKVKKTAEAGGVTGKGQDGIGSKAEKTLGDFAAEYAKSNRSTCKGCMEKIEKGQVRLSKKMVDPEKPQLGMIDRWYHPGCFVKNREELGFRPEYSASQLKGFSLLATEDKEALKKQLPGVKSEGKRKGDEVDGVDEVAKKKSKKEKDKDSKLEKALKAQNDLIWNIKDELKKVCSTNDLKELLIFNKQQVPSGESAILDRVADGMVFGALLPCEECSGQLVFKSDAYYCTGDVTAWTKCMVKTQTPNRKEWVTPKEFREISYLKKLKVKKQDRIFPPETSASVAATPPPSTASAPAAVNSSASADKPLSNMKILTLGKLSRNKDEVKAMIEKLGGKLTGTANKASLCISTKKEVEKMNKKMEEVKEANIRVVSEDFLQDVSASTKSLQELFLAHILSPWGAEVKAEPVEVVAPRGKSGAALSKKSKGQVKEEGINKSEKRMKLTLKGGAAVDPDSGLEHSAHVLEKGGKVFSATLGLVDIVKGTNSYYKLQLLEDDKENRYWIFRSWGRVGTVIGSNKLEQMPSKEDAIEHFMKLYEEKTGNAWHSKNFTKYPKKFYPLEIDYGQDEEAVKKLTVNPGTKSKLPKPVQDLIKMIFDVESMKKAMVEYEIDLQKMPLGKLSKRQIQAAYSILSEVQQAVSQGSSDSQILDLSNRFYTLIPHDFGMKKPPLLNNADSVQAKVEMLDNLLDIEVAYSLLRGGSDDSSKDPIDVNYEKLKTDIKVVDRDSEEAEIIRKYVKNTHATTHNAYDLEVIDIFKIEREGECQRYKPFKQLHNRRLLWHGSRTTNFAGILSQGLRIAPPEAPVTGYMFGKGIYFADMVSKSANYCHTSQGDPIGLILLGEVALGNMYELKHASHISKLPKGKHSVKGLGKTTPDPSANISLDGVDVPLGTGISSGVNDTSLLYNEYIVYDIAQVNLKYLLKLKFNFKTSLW

| SMILES | IC50 [1] | IC50 [2] |
| --- | --- | --- |
| O=C(CC[C@@H]1C[C@@H](F)CN1c1cc(C(F)(F)F)c(=O)[nH]n1)N1CCN(c2ncc(C(F)(F)F)cn2)CC1 [US20240294509, Compound 20] | 49 nM | 3.2 nM |
| O=C(CC[C@@H]1C[C@H](Oc2ccc(F)c(F)c2)CN1c1cc(C(F)(F)F)c(=O)[nH]n1)N1CCN(c2ncc(C(F)(F)F)cn2)CC1 [US20240294509, Compound 58] | 3190 nM | 54 nM |
| O=C(CC[C@@H]1C[C@@H](Oc2cccc(Cl)c2)CN1c1cc(C(F)(F)F)c(=O)[nH]n1)N1CCN(c2ncc(C(F)(F)F)cn2)CC1 [US20240294509, Compound 49] | 79 nM | 26 nM |
| O=C(CC[C@@H]1C[C@H](Oc2cc(F)cc(F)c2)CN1c1cc(C(F)(F)F)c(=O)[nH]n1)N1CCN(c2ncc(C(F)(F)F)cn2)CC1 [US20240294509, Compound 55] | 15600 nM | 82 nM |
| O=C(CC[C@@H]1C[C@@H](Oc2ccc(F)cc2F)CN1c1cc(C(F)(F)F)c(=O)[nH]n1)N1CCN(c2ncc(C(F)(F)F)cn2)CC1 [US20240294509, Compound 50] | 15 nM | 13 nM |
| O=C(CC[C@@H]1C[C@@H](Oc2cncnc2)CN1c1cc(C(F)(F)F)c(=O)[nH]n1)N1CCN(c2ncc(C(F)(F)F)cn2)CC1 [US20240294509, Compound 63] | 179 nM | 3 nM |
| O=C(CC[C@@H]1CCCN1c1cc(C(F)(F)F)c(=O)[nH]n1)N1CCN(c2ncc(C(F)(F)F)cn2)CC1 | 1.3 nM | 2.9 nM |
| O=C(COC[C@@H]1CCCN1c1cc(C(F)(F)F)c(=O)[nH]n1)N1CCN(c2ncc(C(F)(F)F)cn2)CC1 [US20240294509, Compound 1] | 293 nM | 4 nM |
| O=C(CC[C@@H]1C[C@H](Oc2ccccc2)CN1c1cc(C(F)(F)F)c(=O)[nH]n1)N1CCN(c2ncc(C(F)(F)F)cn2)CC1 [US20240294509, Compound 19] | 2020 nM | 4.4 nM |
